This passage reports KA results from ChEMBL document CHEMBL1156316, “Sterol effect on interaction between amphidinol 3 and liposomal membrane as evidenced by surface plasmon resonance” (Bioorg Med Chem Lett, 2010).

Test [1] concerns Lipid bilayer. Put plainly: Binding affinity to synthetic palmitoyl-oleoyl-phosphatidylcholine liposome at 10 uM by surface plasmon resonance assay in presence of 5% ergosterol. In general terms: In SPR one partner is held on a chip, and binding of the other changes the refractive index at the surface.
The test system of test [2] is Lipid bilayer. Put plainly: Binding affinity to synthetic palmitoyl-oleoyl-phosphatidylcholine liposome assessed as overall equilibrium association constant at 10 uM by surface plasmon resonance assay.
Test [3] concerns Lipid bilayer. The experiment in a line: Binding affinity to synthetic palmitoyl-oleoyl-phosphatidylcholine liposome assessed as overall equilibrium association constant at 10 uM by surface plasmon resonance assay in presence of 5% cholesterol.
In test [4] the test system is Lipid bilayer. Put plainly: Binding affinity to synthetic palmitoyl-oleoyl-phosphatidylcholine liposome assessed as association constant for compound- PPC liposome reorientation complex at 10 uM by surface plasmon resonance assay in presence of 5% cholesterol.
The subject of test [5] is Lipid bilayer. The experiment in a line: Binding affinity to synthetic palmitoyl-oleoyl-phosphatidylcholine liposome assessed as association constant for compound- PPC liposome reorientation complex at 10 uM by surface plasmon resonance assay.
The test system of test [6] is Lipid bilayer. The experiment in a line: Binding affinity to synthetic palmitoyl-oleoyl-phosphatidylcholine liposome at 10 uM by surface plasmon resonance assay in presence of 5% cholesterol.
Test [7] relates to Lipid bilayer. Put plainly: Binding affinity to synthetic palmitoyl-oleoyl-phosphatidylcholine liposome at 10 uM by surface plasmon resonance assay.
In test [8] the test system is Lipid bilayer. The experiment in a line: Binding affinity to synthetic palmitoyl-oleoyl-phosphatidylcholine liposome assessed as association constant for compound- PPC liposome reorientation complex at 10 uM by surface plasmon resonance assay in presence of 5% ergosterol.
The test system of test [9] is Lipid bilayer. Put plainly: Binding affinity to synthetic palmitoyl-oleoyl-phosphatidylcholine liposome assessed as overall equilibrium association constant at 10 uM by surface plasmon resonance assay in presence of 5% ergosterol.

For the compound `C=C/C=C/CC/C=C/C=C/C=C/CC/C=C/[C@@H](O)[C@@H](O)C1O[C@@H]([C@H](O)[C@H](O)C(=C)CCC(O)[C@H]2C[C@@H](O)[C@@H](O)C([C@@H](O)[C@H](O)/C=C(\C)CC[C@H](O)C[C@H](O)[C@@H](O)[C@@H](C)C[C@H](O)[C@@H](O)CCCCCC(O)CCC[C@@H](O)/C=C/C[C@@H](O)/C=C/C[C@H](O)CO)O2)CC(O)C1O` (some centres undefined), the KA in test [1] is 143 10^3/M; in test [2], 0.764 10^3/M; in test [3] it was 721 10^3/M; in [4], 3.92 10^3/M; in [5], 0.93 10^3/M; in [6], 180 10^3/M. Moreover, the KA was 0.901 10^3/M in test [7], 28.6 10^3/M in test [8] and 3970 10^3/M in test [9].
